From patent US11028051B2, “Tetrahydroquinoline-based bromodomain inhibitors” (St. Jude Children's Research Hospital, priority 2016, dated 2021)
pEC50: −log10 of the molar value.

Columns and labels:
Test in all cases: competitive TR-FRET assay, BET-BD with acetylated peptide ligand
Format in all cases: binding
[1] = target: BRD3-BD1 (Homo sapiens (Human), UniProt Q15059); conditions: BRD3-BD1; Table 11 additional modifications; read-out: 3.1 EC50
Protocol: (§1) Inhibitor potency was determined using a competitive TR-FRET assay as detailed herein, measuring interaction of the respective BET-BD with an acetylated peptide ligand (Table 2).

[2] = target: BRD2-BD2 (Homo sapiens (Human), UniProt P25440); conditions: for pEC50: BRD2-BD2, Table 11 additional modifications, read-out: 2.2 EC50; for 2.1/2.2: ratio of BRD2-BD1 EC50 to BRD2-BD2 EC50 (selectivity)
BRD2-BD2, sequence (P25440 344-453): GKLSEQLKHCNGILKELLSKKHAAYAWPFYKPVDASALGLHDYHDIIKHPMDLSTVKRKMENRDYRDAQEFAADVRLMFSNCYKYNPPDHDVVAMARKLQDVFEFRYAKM
Protocol: as §1

[3] = target: BRD2-BD1 (Homo sapiens (Human), UniProt P25440); conditions: BRD2-BD1; Table 11 additional modifications; read-out: 2.1 EC50
BRD2-BD1, sequence (P25440 74-180): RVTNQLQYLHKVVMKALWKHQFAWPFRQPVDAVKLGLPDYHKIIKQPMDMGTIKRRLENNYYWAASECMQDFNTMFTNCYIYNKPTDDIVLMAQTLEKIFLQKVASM
Protocol: as §1

[4] = target: BRD4-BD1 (Homo sapiens (Human), UniProt O60885); conditions: BRD4-BD1; Table 11 additional modifications; read-out: 4.1 EC50
Protocol: as §1

[5] = target: BRD4-BD2 (Homo sapiens (Human), UniProt O60885); conditions: BRD4-BD2; Table 11 additional modifications; read-out: 4.2 EC50
Protocol: as §1

[6] = target: BRDT (Homo sapiens, UniProt Q58F21); conditions: BRDT; Table 11 additional modifications; read-out: BRDT EC50
Protocol: as §1

BRD3-BD1, sequence (Q15059 34-140): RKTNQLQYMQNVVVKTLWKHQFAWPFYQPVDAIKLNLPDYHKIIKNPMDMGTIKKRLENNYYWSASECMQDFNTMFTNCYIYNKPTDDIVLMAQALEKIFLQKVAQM

Row | SMILES | pEC50 [1] | pEC50 [2] | 2.1/2.2 [2] | pEC50 [3] | pEC50 [4] | pEC50 [5] | pEC50 [6]
1 | CC(=O)N1c2ccc(-c3ccc(Oc4ccccc4)cc3)cc2[C@H](NC(=O)OC(C)C)C[C@@H]1C [compound 61] | 5.06 | 5.68 | 6.2 | 4.89 | 4.96 | 4.85 | 
2 | COc1ccccc1-c1ccc2c(c1)[C@H](NC(=O)OC(C)C)C[C@H](C)N2C(C)=O [compound 60] | 4.96 | 5.54 | 5.3 | 4.82 | < 4.30 | 4.85 | 
3 | CC(=O)Nc1cccc(-c2ccc3c(c2)[C@H](NC(=O)C(C)C)C[C@H](C)N3C(C)=O)c1 [compound 65] |  |  | 1.4 |  |  | 5.11 | 
4 | CC(=O)N1c2ccc(-c3cccc(NCCCc4ccccc4)c3)cc2[C@H](NC(=O)OC(C)C)C[C@@H]1C [compound 109] | 6.17 | 6.55 | 5.6 | 4.96 | < 4.96 |  | 4.96
5 | CCCOc1cccc(-c2ccc3c(c2)[C@H](Nc2ccccc2OC(F)(F)F)C[C@H](C)N3C(C)=O)c1 [compound 167] | < 4.15 | 5.68 | 16 | < 4.15 | < 4.15 |  | < 4.15
6 | CC(=O)N1c2ccc(-c3cccc(NC(=O)c4ccc(C)cc4)c3)cc2[C@H](NC(=O)OC(C)C)C[C@@H]1C [compound 95] | 6.42 | 6.38 | 1.2 | 5.51 | 5.70 |  | 6.29
7 | CC(=O)N1c2ccc(-c3cccc(NC(=O)C4CCC(C)CC4)c3)cc2[C@H](NC(=O)OC(C)C)C[C@@H]1C (some centres unmarked) [compound 102] | 6.28 | 6.37 | 40 | 5.32 | 5.42 |  | 5.92
8 | CC(=O)N1c2ccc(-c3ccnn3C)cc2[C@H](NC(=O)OC(C)C)C[C@@H]1C [compound 97] | 5.11 | 5.60 | 4.8 | 4.00 | 4.70 |  | 4.40
9 | CC(=O)N1c2ccc(-c3cccc(NC(=O)CCc4ccccc4)c3)cc2[C@H](NC(=O)OC(C)C)C[C@@H]1C [compound 116] | 6.55 | 6.42 | 7.0 | 5.92 | 5.64 |  | 5.92
10 | CC(=O)N1c2ccc(-c3cccc(NC(=O)c4ccccc4)c3)cc2[C@H](NC(=O)OC(C)C)C[C@@H]1C [compound 107] | 6.77 | 6.80 | 11 | 5.92 | 6.09 |  | 6.31
11 | CC(=O)N1c2ccc(-c3cccc(NCC4CCOC4)c3)cc2[C@H](NC(=O)OC(C)C)C[C@@H]1C (some centres unmarked) [compound 105] | 7.00 | 7.52 | 0.095 | 6.40 | 6.70 |  | 5.96
12 | COc1cc(F)ccc1N[C@@H]1C[C@H](C)N(C(C)=O)c2ccc(-c3ccn(C)n3)cc21 [compound 173] | 5.82 | 6.77 | 8.2 | 5.85 | 5.42 |  | 5.70
13 | CC(=O)Nc1cccc(-c2ccc3c(c2)[C@H](Nc2ccc(C(=O)CO)cc2)C[C@H](C)N3C(C)=O)c1 [compound 30] | 5.01 | 7.70 | 145 | 5.54 | < 4.15 |  | 5.32
14 | CC(=O)Nc1cccc(-c2ccc3c(c2)[C@H](Nc2cccc4ccccc24)C[C@H](C)N3C(C)=O)c1 [compound 32] | < 4.64 | < 4.64 |  | < 4.64 | < 4.64 |  | < 4.64
15 | CC(=O)N1c2ccc(-c3cccc(NCCC(C)(C)C)c3)cc2[C@H](NC(=O)OC(C)C)C[C@@H]1C [compound 106] | 6.01 | 4.37 | 10 | 5.41 | 5.48 |  | 5.15
16 | CC(=O)N1c2ccc(-c3ccn(C)n3)cc2[C@H](Nc2ccccc2OC(F)(F)F)C[C@@H]1C [compound 172] | 4.92 | 6.19 | 6.3 | 5.09 | 4.77 |  | 4.92
17 | CC(=O)N1c2ccc(-c3cccc(NC(=O)C(C)(C)C)c3)cc2[C@H](NC(=O)OC(C)C)C[C@@H]1C [compound 113] | 6.39 | 6.96 | 4.8 | 5.66 | 5.85 |  | 5.12
18 | CC(=O)N1c2ccc(-c3cccc(NCC4CC4)c3)cc2[C@H](NC(=O)OC(C)C)C[C@@H]1C [compound 108] | 6.43 | 6.44 | 1.3 | 5.60 | 5.77 |  | 4.23
19 | CC(=O)N1c2ccc(-c3cccc(NC(=O)CC(C)C)c3)cc2[C@H](NC(=O)OC(C)C)C[C@@H]1C [compound 104] | 6.39 | 6.54 | 7.8 | 5.80 | 6.03 |  | 5.80
20 | CC(=O)Nc1cccc(-c2ccc3c(c2)[C@H](Nc2ccc(C(=O)N(C)C)cc2)C[C@H](C)N3C(C)=O)c1 [compound 174] | 5.96 | 7.40 | 58 | 6.05 | < 4.82 |  | 5.92
21 | CC(=O)Nc1cccc(-c2ccc3c(c2)[C@H](Nc2ccc(S(=O)(=O)N(C)C)cc2)C[C@H](C)N3C(C)=O)c1 [compound 175] | 5.77 | 7.00 | 27 | 5.57 | 5.26 |  | 5.54
22 | COC(=O)c1ccc(N[C@@H]2C[C@H](C)N(C(C)=O)c3ccc(-c4cccc(OCCN5CCOCC5)c4)cc32)cc1 [compound 166] | 6.82 | 7.70 | 6.5 | 6.89 | 6.19 |  | 6.55
23 | CCCOc1cccc(-c2ccc3c(c2)[C@H](Nc2ccc(F)cc2OC)C[C@H](C)N3C(C)=O)c1 [compound 168] | 4.35 | 5.92 | 99 | 4.46 | < 4.24 |  | 4.41
24 | CC(=O)Nc1cccc(-c2ccc3c(c2)[C@H](Nc2ccc(-c4nnn(C)n4)cc2)C[C@H](C)N3C(C)=O)c1 [compound 27] | 6.51 | 7.46 | 6.3 | 6.66 | 5.68 |  | 6.18
25 | CC(=O)N1c2ccc(-c3cccc(NS(C)(=O)=O)c3)cc2[C@H](NC(=O)OC(C)C)C[C@@H]1C [compound 93] | 6.82 | 6.92 | 4.6 | 6.24 | 6.42 |  | 5.92
26 | CC(=O)Nc1cccc(-c2ccc3c(c2)[C@H](NC(=O)C(C)C)C[C@H](C)N3C(C)=O)c1 [compound 71] |  |  | 4.9 |  |  | 4.96 | 
27 | COC(=O)c1ccc(N[C@@H]2C[C@H](C)N(C(C)=O)c3ccc(-c4cccc(NC(C)=O)c4)cc32)c(C)c1 [compound 160] | 5.52 |  | 44 | 5.66 | < 4.52 |  | 5.48
